60 compounds from a melting point compilation (Tetko et al.; mined from patent text by program, amines drawn as free bases though some values may be those of a salt) can be followed below.

Take `CC(C)n1cc(C(=O)NCc2ccc(Cl)cc2)c(=O)c2cc(C#CCO)sc21`: the melting point (as a rule, the temperature, or range, at which the solid turns liquid) fell in the range of 190 to 196 °C.
`N#Cc1cc(Cl)ccc1N1CCN(Cc2cn3cc(Cl)ccc3n2)CC1`: the melting point is 191 to 192 °C.
In the case of `CNC(=O)CN1CCc2cc(Nc3ncc(Cl)c(Nc4ccccc4OC)n3)c(OC)cc2CC1`, the melting point lay in the range of 81 to 95 °C.
For `CCOC(=O)C1=CNc2cccnc2S1`, the melting point was 194 to 195 °C.
In the case of `c1ccc(CN2CCC(c3nc(-c4ccc(-c5ccccc5)cc4)c[nH]3)CC2)cc1`, the melting point is 110 to 112 °C.
As to `O=S(=O)(NCCc1ccc(CCl)cc1)c1ccc(Cl)cc1`, the melting point is 96 to 98 °C.
`CCOC(=O)c1cc(/C=C/c2ccc(O)cc2)ccc1O` gave a melting point of 269 to 271 °C.
`Cc1cccc(NC(=O)NCC(=O)N2[C@@H](C(=O)OC(C)(C)C)C[C@H](CO)[C@H]2c2ccccc2)c1` (racemic) displayed a melting point of 168 °C.
Next, `C=CCOC(=O)CCCS(=O)C1CC(=O)N1CC(=O)NCCCCCCc1ccc(F)cc1` (stereo not given): 95 to 96 °C; `CN(C)S(=O)(=O)c1cc(-c2csc(=Nc3ccc4c(c3)OCO4)n2C)ccc1Cl`: 171 to 173 °C; `COC(=O)c1cccc(CN2C(=O)C3(COc4cc5c(cc43)CCO5)c3ccccc32)c1` (stereo not given): 97 to 98 °C.
In turn, `NC(=O)c1nn(S(=O)(=O)c2ccccc2)c2ccccc12` gave a melting point of 208 to 210 °C.
`CCCCCCCNc1cccc2c1CN(c1cc(C)cc(C)c1)C2=O` returned a melting point of 68 to 69 °C.
Regarding `CCCc1c(OCc2ccc(Cc3nnn[nH]3)cc2)ccc(C(C)=O)c1O`, the melting point fell in the range of 184 to 187 °C.
`CC(CNC(c1ccccc1)c1ccccc1)NC(c1ccccc1)c1ccccc1` (stereo not given) displayed a melting point of 72 to 75 °C.
`O=c1cc(-c2ccc(O)c(F)c2)oc2ccccc12` came in with a melting point of 275 to 276 °C.
In turn, `COc1cc(OC)nc(Sc2sccc2[N+](=O)[O-])n1` showed a melting point of 199 to 201 °C.
The compound `COc1cc2c(c(OC(C)=O)c1)C1CCC3(C)C(=O)C(Br)CC3C1CC2` (stereo not given) registered a melting point of 188 to 190 °C.
With `CCC1N=C(c2ccccc2Cl)c2cc(CCC(=O)N3CCOCC3)sc2-n2c(C)nnc21` (stereo not given), the melting point was in the range of 145 to 147 °C.
Compound `CCCc1nc2cnc3ccc([N+](=O)[O-])cc3c2s1` returned a melting point of 228 to 230 °C.
Compound `CC(C)(C)c1cc2c(c(C(C)(C)C)c1O)CCO2` showed a melting point of 113 °C.
In the case of `CNC(=O)c1cccc(Nc2ncnc3[nH]cc(C(=O)c4cccc5ccccc45)c23)c1`, the melting point is above 300 °C.
Consider `NC(=O)c1ccc(-c2ccc(Cl)cc2)nc1`, for which the melting point lay within 245 to 258 °C.
`OCCOc1cccc2cnccc12` showed a melting point of 64 to 67 °C.
`CN1C(=O)N(c2ccc([N+](=O)[O-])c(C(F)(F)F)c2)C(=O)C1(C)CF` (stereo not given) registered a melting point of 118 to 119 °C.
As to `CCC(C(=O)N(C)C)n1cc(C(C)C)c(-c2ccccc2)n1` (stereo not given), the melting point was in the range of 89 to 90 °C.
On to `O=C(c1cc(F)ccc1C(F)(F)F)N1CCN(c2ccc(-c3ncc(-c4ccccc4)o3)nn2)CC1`, for which the melting point was in the range of 122 to 125 °C.
`Cc1[nH]c2ccc(O)cc2c1C(=O)NC1CCN(CCCc2ccccc2)CC1` yielded a melting point of 181 to 184 °C.
Compound `O=C1c2ccccc2C(=O)N1C(Cc1ccccc1)CP(=O)(O)O` (stereo not given) returned a melting point of 127 to 130 °C.
The figure for `Cc1cc(C)cc(C(=O)N2CCN(C(=O)CCNC3CCN(Cc4ccccc4)CC3)C(c3ccc(Cl)c(Cl)c3)C2)c1` (stereo not given) is 51 to 54 °C; for `CC1=C(C(=O)OC(C)(C)C)C(c2cc(Br)ccc2F)C(C(=O)OC(C)(C)C)=C(C)N1` it is 173 to 174 °C.
For `CCOC(=O)c1cnc2c(F)c(Br)c(F)cc2c1O`, the melting point came to 285 °C.
As to `O=C1CC(c2cccc(-n3ccnn3)c2)=Nc2ccc(-c3ccccc3F)cc2N1`, the melting point fell in the range of 209 to 212 °C.
As for `NC(=O)C1(CCCNC2CC2)c2ccccc2-c2ccccc21`, the melting point lay within 163 to 165 °C.
Consider `CCCCOP(=O)(CCCCC1(C(=O)NCCC)c2ccccc2-c2ncccc21)OCCCC` (stereo not given), for which the melting point fell in the range of 93.5 to 96 °C.
Consider `COCCOC(=O)Nc1cccc(C)c1CNc1cccn2c(CO)c(C)nc12`, for which the melting point fell in the range of 138 to 140 °C.
In turn, `CCCCCCCCCCCCCCCCN(CC(O)CO)C(C)=O` (stereo not given) gave a melting point of 56 to 58 °C.
For `CC1Cc2ccc(C#N)cc2C1=O` (stereo not given), the melting point stood at 95 °C.
With `CC(C(=O)O)c1ccc(C(=O)c2ccc3ccccc3c2)cc1` (stereo not given), the melting point came out at 150 °C.
`COc1cc(C#Cc2ccccc2)c(OC)cc1C#Cc1ccccc1` showed a melting point of 172 to 174 °C.
`Cc1nc(N)nc(O)c1I` yielded a melting point of 212 °C.
Regarding `O=C(NNC1NS(=O)(=O)c2ccccc21)Oc1ccccc1` (stereo not given), the melting point amounted to 216 °C.
As to `O=C(NCc1cccnc1)C1Oc2ccc(Cl)cc2Cc2cc(Cl)ccc2O1`, the melting point lay in the range of 225 to 226 °C.
As to `O=c1ccc(C(F)(F)F)cn1-c1ccc([N+](=O)[O-])cc1Cl`, the melting point worked out at 218 °C.
For `CC(=NOCCOc1ccc(CC2SC(=O)NC2=O)cc1)c1ccc(-c2ccc(C(F)(F)F)cc2)cc1` (stereo not given), the melting point fell in the range of 165 to 166 °C.
The figure for `COc1ccc(C(=O)O)cc1C(=O)NCc1ccc(C(F)(F)F)cc1` is 236 °C; for `O=c1c(Cl)nc2ccc(C(F)(F)F)cc2n1OCc1ccccc1` it is 148 to 150 °C.
`CCCOC(=O)c1cnc(S)n1C(c1ccccc1)c1ccccc1` showed a melting point of 133 °C.
In turn, `C[C@H]1N(C(=O)OCc2ccccc2)COC1(O)c1ccc(OCc2ccccc2)cc1` (stereo not given in full) registered a melting point of 82 to 86 °C.
`O=c1[nH]c2cc(Cl)ccc2n1C1CCN(Cc2cccc(-c3ccc(Cl)cc3)n2)CC1` came in with a melting point of 203 to 205 °C.
As to `C=Cc1ccc(S(=O)(=O)NS(=O)(=O)c2ccccc2)cc1`, the melting point lay within 145 to 147 °C.
The figure for `CCC1c2cccn2-c2ccc(C(F)(F)F)cc2N1S(=O)(=O)c1ccc(OC)c(Cl)c1` (stereo not given) is 126 to 129 °C.
Next, `CC(NC(=O)OCc1ccccc1)P(C)(=O)OCc1ccccc1` (stereo not given): 108 to 110 °C; `CC(=O)SCC1CCCCCCC(C(=O)N2C(=O)OCC2Cc2ccccc2)NC1=O` (stereo not given): 65 to 66 °C.
For `COC(=O)c1ccc(C)c(-n2c(C)cc(OCc3ccccc3CNC(=O)Nc3cc(C(C)(C)C)nn3-c3cccc(OCCO)c3)c(Cl)c2=O)c1`, the melting point lay within 147 to 148 °C.
As for `O=C(c1ccc(-n2cncn2)cc1)N1CCC(NCc2ccccc2)CC1`, the melting point lay within 137 to 138 °C.
Next, `O=C(Nc1nccs1)c1cccc(-c2ccc3c(c2)C(Oc2ccc(Cl)cc2Cl)CC3)c1` (stereo not given): 180 to 181 °C.
Take `Cc1noc(NS(=O)(=O)c2ccc([N+](=O)[O-])cc2)c1Br`: the melting point is 146 to 149 °C.
As for `Cc1c(Cc2cccc(C(F)(F)F)c2)sc2c(-c3cc(F)cc(C(=O)NCCO)c3)cccc12`, the melting point fell in the range of 151 to 152 °C.
`CS(=O)(=O)c1ccc(-n2nc(C(F)F)cc2-c2nc3cccc(F)c3s2)cc1` registered a melting point of 193 to 195 °C.
